Reference: patent US20150031674A1, “SERINE/THREONINE KINASE INHIBITORS” (GENENTECH, INC., priority 2013, published 2015)

Biological target: human recombinant PAK1-KD protein (Homo sapiens, UniProt Q13153)
Experiment: PAK1-KD (Kinase Domain) IC50 Zlyte Assay (FRET peptide substrate phosphorylation)
Settings: Z'-LYTE, Biological Example 1

Sequence of human recombinant PAK1-KD protein (Q13153 270-521 limits assumed): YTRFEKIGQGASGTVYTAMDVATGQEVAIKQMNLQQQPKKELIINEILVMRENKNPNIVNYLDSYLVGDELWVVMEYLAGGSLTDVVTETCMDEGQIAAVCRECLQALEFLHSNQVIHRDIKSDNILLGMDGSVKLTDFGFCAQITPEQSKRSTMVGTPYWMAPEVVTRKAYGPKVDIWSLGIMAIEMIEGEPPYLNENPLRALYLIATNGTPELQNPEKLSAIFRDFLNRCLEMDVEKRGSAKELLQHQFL

SMILES | Ki [nM]
CNc1ncc2cc(-c3ccc(-c4nc(C)cs4)cc3Cl)c(=O)n(C[C@H]3CNCCO3)c2n1 [Example I-189, 6-[2-chloro-4-(4-methylthiazol-2-yl)phenyl]-2-(methylamino)-8-[[(2R)-morpholin-2-yl]methyl]pyrido[2,3-d]pyrimidin-7-one] | 25.8
CCNc1ncc2cc(-c3ccc(-c4cncc(C)n4)cc3Cl)c(=O)n(CC3C4CN(C)CC43)c2n1 (stereo not shown) [Example I-128, 6-[2-chloro-4-(6-methylpyrazin-2-yl)phenyl]-2-(ethylamino)-8-[(3-methyl-3-azabicyclo[3.1.0]hexan-6-yl)methyl]pyrido[2,3-d]pyrimidin-7-one] | 11.8
CNc1ncc2cc(-c3ccc(-c4cncc(C)n4)cc3Cl)c(=O)n(CC(=O)N(C)C)c2n1 [Example I-86, 2-[6-[2-Chloro-4-(6-methylpyrazin-2-yl)phenyl]-2-(methylamino)-7-oxo-pyrido[2,3-d]pyrimidin-8-yl]-N,N-dimethyl-acetamide] | 123
Cc1cccc(-c2ccc(-c3cc4cnc(NC5COC5)nc4n(CCCS(N)(=O)=O)c3=O)c(C)c2)n1 [Example I-161, 3-[6-[2-methyl-4-(6-methyl-2-pyridyl)phenyl]-2-(oxetan-3-ylamino)-7-oxo-pyrido[2,3-d]pyrimidin-8-yl]propane-1-sulfonamide] | 22
CCNc1ncc2cc(-c3ccc(-c4cncc(C)n4)cc3Cl)c(=O)n(CCC3CCCN3)c2n1 (single isomer, unassigned) [Example I-20] | 20.4
CNc1ncc2cc(-c3ccc(-c4cccc(C)n4)cc3C)c(=O)n(C[C@H]3CNCCO3)c2n1 [Example I-148, 2-(Methylamino)-6-[2-methyl-4-(6-methyl-2-pyridyl)phenyl]-8-[[(2R)-morpholin-2-yl]methyl]pyrido[2,3-d]pyrimidin-7-one] | 7.3
CCc1cc(-c2cccc(C)n2)ccc1-c1cc2cnc(NC3COC3)nc2n(CC[C@H]2OC[C@H](N)CO2)c1=O [Example I-198, 8-[2-(5-Amino-1,3-dioxan-2-yl)ethyl]-6-[2-ethyl-4-(6-methyl-2-pyridyl)phenyl]-2-(oxetan-3-ylamino)pyrido[2,3-d]pyrimidin-7-one] | 1.2
CNc1ncc2cc(-c3ccc(-c4cccc(C)n4)cc3Cl)c(=O)n(CC3CCN(C)CC3)c2n1 [Example I-175, 6-[2-chloro-4-(6-methyl-2-pyridyl)phenyl]-2-(methylamino)-8-[(1-methyl-4-piperidyl)methyl]pyrido[2,3-d]pyrimidin-7-one] | 19.8
Cc1cccc(-c2ccc(-c3cc4cnc(NC(C)C)nc4n(CC(=O)N4CCNCC4)c3=O)c(Cl)c2)n1 [Example I-35, 6-[2-Chloro-4-(6-methyl-2-pyridyl)phenyl]-2-(isopropylamino)-8-(2-oxo-2-piperazin-1-yl-ethyl)pyrido[2,3-d]pyrimidin-7-one] | 4.2
Cc1cncc(-c2ccc(-c3cc4cnc(NC5COC5)nc4n(C[C@H]4CNCCO4)c3=O)c(Cl)c2)n1 [Example I-146, 6-[2-Chloro-4-(6-methylpyrazin-2-yl)phenyl]-8-[[(2R)-morpholin-2-yl]methyl]-2-(oxetan-3-ylamino)pyrido[2,3-d]pyrimidin-7-one] | 10.7
CNc1ncc2cc(-c3ccc(-c4cncc(C)n4)cc3Cl)c(=O)n(CCN3CCOCC3)c2n1 [Example I-158, 6-[2-chloro-4-(6-methylpyrazin-2-yl)phenyl]-2-(methylamino)-8-(2-morpholinoethyl)pyrido[2,3-d]pyrimidin-7-one] | 78.2
Cc1cncc(-c2ccc(-c3cc4cnc(NC5COC5)nc4n(CCOCCO)c3=O)c(Cl)c2)n1 [Example I-67, 6-[2-Chloro-4-(6-methylpyrazin-2-yl)phenyl]-8-[2-(2-hydroxyethoxy)ethyl]-2-(oxetan-3-ylamino)pyrido[2,3-d]pyrimidin-7-one] | 77.8
CCNc1ncc2cc(-c3ccc(-c4cncc(C)n4)cc3Cl)c(=O)n(CCN3CCN(C)CC3)c2n1 [Example I-27, 6-(2-Chloro-4-(6-methylpyrazin-2-yl)phenyl)-2-(ethylamino)-8-(2-(4-methylpiperazin-1-yl)ethyl)pyrido[2,3-d]pyrimidin-7(8H)-one] | 47.6
